Reference: EP3748362A1, “IN VITRO METHOD FOR DETECTING RENAL DISEASE” (Fundacion Instituto De Investigacion Sanitaria Fundacion …, priority 2019, dated 2020)

What was measured:
CIAP1-TRAF3 complexes = assay: TRAF3 immunoprecipitation (ubiquitin-Lys-48, CIAP1) in PBMCs from ESRD patients; format: in vivo, human
Description: Intracellular protein and mRNA levels were measured in PBMCs from ESRD patients on hemodialysis. Inclusion criteria were as follows: age >45 years; male sex; informed consent; and absence of active inflammatory, infectious, or malignant diseases at the initiation or during the study. This study was approved by the IIS-Fundación Jiménez Diaz Ethics Committee. Patients were enrolled after providing written informed consent. PBMCs were separated from whole blood samples (30 ml into EDTA tubes) by a density gradient centrifugation method using Ficoll density gradient centrifugation. In total, 50x10^6 of PBMCs were obtained from 30 ml of whole blood and 6x10^6 PBMCs were used to isolate protein, RNA and nuclear/cytosolic protein levels using the NE-PER Reagent (Pierce) following the manufacturer's instructions.
Cells growing in tissue culture dish plates, were lysed in 300-500 µl Triton-NP-40 lysis buffer [50 mmol/L Tris-HCl pH 8, 150 mmol/L NaCl, 1 mmol/L phenylmethylsulphonylfluoride, 1% NP-40/IGEPAL, and a phosphatase-inhibitor cocktail (Set II, Calbiochem)], scraped off the dish and incubated 1 hour to 4°C with shaking. Cell lysates were precleared by incubating with 10 µl protein A-agarose bead slurries (0.5 mL agarose/2 mL phosphate-buffered saline) for 30 min at 4°C, and then centrifuged three times for 5 minutes at 2500 rpm, to wash supernatants. […]

NF-κB2 = NF-κB2 activation (p52 western blot) in MARSS gene silenced HK2 cells stimulated with TWEAK; format: cell-based, Human; settings: paricalcitol 15 µmol/L 48 hours, TWEAK 100 ng/ml
Description: Human kidney proximal tubule epithelial cells (HK2 cell line, ATCC CRL-2190) were grown in RPMI 1640 with 10% fetal bovine serum (FBS), 1% glutamine, 100 U/ml penicillin, 100 µg/ml streptomycin, 5 µg/ml insulin-transferrin-selenite and 36 ng/ml hydrocortisone in 5% CO2 at 37° C. When cells reached 60 to 70% confluence, they were serum-depleted for 24 hours before the experiment.
Cells were stimulated with 100ng/ml recombinant human soluble TWEAK (Millipore) or p-200 µg/ml cresyl-sulfate (Raymond Vanholder and Griet Glorieux, University of Gent, Belgium). Concentrations of TWEAK and p-cresyl-sulfate were based on previously published dose-response experiments (Poveda et al. 2014; Sanz et al. 2008). […] DMSO, used as a solvent in some cases, had no effect on cell viability or on gene expression levels.
For western blot, cell (25 µg/lane) and kidney (100-150 µg/lane) protein extracts were separated on 6%-12% polyacrylamide-SDS gels under reducing conditions. […] Autoradiographs were scanned using the Gel Doc™ EZ imager and analyzed with the Image Lab 3.0 software (BioRad). […]

TRAF3 = assay: Renal TRAF3 (western blot), TWEAK-mediated renal inflammation in mice; format: in vivo; settings: TWEAK 0.5 µg model; paricalcitol 750 ng/kg/day i.p.; sacrificed 24 hours after TWEAK
Description: All animal procedures were performed according to the guidelines of animal research in the European Community and with prior approval by the Ethics Committee of the Health Research of the IIS-Fundacion Jiménez Díaz. For in vivo studies, mice received a daily intraperitoneal injection of the VDRA Paricalcitol starting 48 hours prior to induction of kidney damage.
At the time of sacrifice, animals were anesthetized with 5 mg/kg xylazine (Rompun, Bayer AG) and 35 mg/kg ketamine (Ketolar, Pfizer) and the kidneys perfused in situ with cold saline before removal. Then, kidney portions were fixed in formalin buffer for immunohistochemistry studies or immediately frozen in liquid nitrogen for gene and protein studies.
TWEAK administration: C57BL/6 female mice (9-12 weeks, weight 20 g, 7-8 animals per group), received a single intraperitoneal injection of 0.5 µg TWEAK dissolved in saline and were sacrificed 24 hours later, as previously described (Sanz et al. 2008). Controls were injected with the saline vehicle (n=8-10 mice per group). TWEAK endotoxin level were <0.1 ng/mg, confirmed by MALDI-TOF. […]
For western blot, cell (25 µg/lane) and kidney (100-150 µg/lane) protein extracts were separated on 6%-12% polyacrylamide-SDS gels under reducing conditions. […] Autoradiographs were scanned using the Gel Doc™ EZ imager and analyzed with the Image Lab 3.0 software (BioRad).

## C[C@H](/C=C/[C@H](C)C(C)(C)O)[C@H]1CC[C@H]2/C(=C/C=C3C[C@@H](O)C[C@H](O)C3)CCC[C@]12C [paricalcitol]
CIAP1-TRAF3 complexes; PBMCs of paricalcitol-treated ESRD patients, TRAF3 immunoprecipitation
  TRAF3 ubiquitination and CIAP1-TRAF3 interaction: significantly lowering to values in the range of healthy controls
CIAP1-TRAF3 complexes; whole protein extracts of PBMCs, paricalcitol-treated ESRD patients
  CIAP-1 levels: close to control values
NF-κB2
  TWEAK-induced NF-κB2 activation: diminished
TRAF3
  renal TRAF3 protein levels: restored renal TRAF3 protein levels to values of control mice
